Source: ChEMBL document CHEMBL4354856, “Discovery of 4,6-O-Thenylidene-β-d-glucopyranoside-(2″-acetamido, 3″-acetyl-di-S-5-fluorobenzothizole/5-fluorobenzoxazole)-4'-demethylepipodophyllotoxin as Potential Less Toxic Antitumor Candidate Drugs by Reducing DNA Damage and Less Inhibition of PI3K” (J Med Chem, 2020)
Active and inactive are the calls of the source. The calls are words filed in the database; no cut-off is given here.

Experiments:
[1] = Cytotoxicity against human H8 cells assessed as inhibition of cell proliferation measured after 48 hrs by MTT assay; type: cell-based
[2] = tested on: A549; assay: Anticancer activity against human A549 cells assessed as inhibition of cell proliferation measured after 48 hrs by MTT assay; type: functional, cell-based; conditions: A549, 48 h
[3] = tested on: L02; assay: Cytotoxicity against human HL7702 cells assessed as inhibition of cell proliferation measured after 48 hrs by MTT assay; type: cell-based; conditions: L02, 48 h
[4] = tested on: HepG2; assay: Anticancer activity against human HepG2 cells assessed as inhibition of cell proliferation measured after 48 hrs by MTT assay; type: functional, cell-based; conditions: HepG2, 48 h
[5] = tested on: HMEC; assay: Cytotoxicity against human HMEC cells assessed as inhibition of cell proliferation measured after 48 hrs by MTT assay; type: cell-based
[6] = tested on: HeLa; assay: Anticancer activity against human HeLa cells assessed as inhibition of cell proliferation measured after 48 hrs by MTT assay; type: functional, cell-based
[7] = tested on: MRC5; assay: Cytotoxicity against human MRC5 cells assessed as inhibition of cell proliferation measured after 48 hrs by MTT assay; type: cell-based; conditions: MRC5, 48 h
[8] = tested on: MCF7; assay: Anticancer activity against human MCF7 cells assessed as inhibition of cell proliferation measured after 48 hrs by MTT assay; type: functional, cell-based; conditions: MCF7, 48 h
[9] = target: T1, DNA topoisomerase II (Homo sapiens, UniProt P11388+Q02880); assay: Poison activity at topoisomerase-2 in human HepG2 cell lysate assessed as topoisomerase-2 band depletion after 3 hrs by Western blot analysis; type: subcellular
[10] = tested on: HepG2; assay: Cell cycle arrest in human HepG2 cells assessed as accumulation at G2/M phase at 5 uM after 24 hrs by propidium staining based flow cytometry analysis; type: functional
[11] = tested on: L02; assay: Induction of apoptosis in human HL7702 cells assessed as apoptotic cells at 50 uM measured after 42 hrs by Annexin-V/propidium iodide staining based flow cytometry analysis relative to control; type: cell-based; conditions: l02, 42 h
[12] = target: DNA topoisomerase 2-alpha (Homo sapiens) (UniProt P11388); assay: Inhibition of human topoisomerase-2alpha mediated decatenation at 50 uM using kinetoplast DNA as substrate after 30 mins in presence of ATP by ethidium bromide staining-based UV imaging analysis relative to control
DNA topoisomerase 2-alpha (Homo sapiens), sequence (P11388 whole entry): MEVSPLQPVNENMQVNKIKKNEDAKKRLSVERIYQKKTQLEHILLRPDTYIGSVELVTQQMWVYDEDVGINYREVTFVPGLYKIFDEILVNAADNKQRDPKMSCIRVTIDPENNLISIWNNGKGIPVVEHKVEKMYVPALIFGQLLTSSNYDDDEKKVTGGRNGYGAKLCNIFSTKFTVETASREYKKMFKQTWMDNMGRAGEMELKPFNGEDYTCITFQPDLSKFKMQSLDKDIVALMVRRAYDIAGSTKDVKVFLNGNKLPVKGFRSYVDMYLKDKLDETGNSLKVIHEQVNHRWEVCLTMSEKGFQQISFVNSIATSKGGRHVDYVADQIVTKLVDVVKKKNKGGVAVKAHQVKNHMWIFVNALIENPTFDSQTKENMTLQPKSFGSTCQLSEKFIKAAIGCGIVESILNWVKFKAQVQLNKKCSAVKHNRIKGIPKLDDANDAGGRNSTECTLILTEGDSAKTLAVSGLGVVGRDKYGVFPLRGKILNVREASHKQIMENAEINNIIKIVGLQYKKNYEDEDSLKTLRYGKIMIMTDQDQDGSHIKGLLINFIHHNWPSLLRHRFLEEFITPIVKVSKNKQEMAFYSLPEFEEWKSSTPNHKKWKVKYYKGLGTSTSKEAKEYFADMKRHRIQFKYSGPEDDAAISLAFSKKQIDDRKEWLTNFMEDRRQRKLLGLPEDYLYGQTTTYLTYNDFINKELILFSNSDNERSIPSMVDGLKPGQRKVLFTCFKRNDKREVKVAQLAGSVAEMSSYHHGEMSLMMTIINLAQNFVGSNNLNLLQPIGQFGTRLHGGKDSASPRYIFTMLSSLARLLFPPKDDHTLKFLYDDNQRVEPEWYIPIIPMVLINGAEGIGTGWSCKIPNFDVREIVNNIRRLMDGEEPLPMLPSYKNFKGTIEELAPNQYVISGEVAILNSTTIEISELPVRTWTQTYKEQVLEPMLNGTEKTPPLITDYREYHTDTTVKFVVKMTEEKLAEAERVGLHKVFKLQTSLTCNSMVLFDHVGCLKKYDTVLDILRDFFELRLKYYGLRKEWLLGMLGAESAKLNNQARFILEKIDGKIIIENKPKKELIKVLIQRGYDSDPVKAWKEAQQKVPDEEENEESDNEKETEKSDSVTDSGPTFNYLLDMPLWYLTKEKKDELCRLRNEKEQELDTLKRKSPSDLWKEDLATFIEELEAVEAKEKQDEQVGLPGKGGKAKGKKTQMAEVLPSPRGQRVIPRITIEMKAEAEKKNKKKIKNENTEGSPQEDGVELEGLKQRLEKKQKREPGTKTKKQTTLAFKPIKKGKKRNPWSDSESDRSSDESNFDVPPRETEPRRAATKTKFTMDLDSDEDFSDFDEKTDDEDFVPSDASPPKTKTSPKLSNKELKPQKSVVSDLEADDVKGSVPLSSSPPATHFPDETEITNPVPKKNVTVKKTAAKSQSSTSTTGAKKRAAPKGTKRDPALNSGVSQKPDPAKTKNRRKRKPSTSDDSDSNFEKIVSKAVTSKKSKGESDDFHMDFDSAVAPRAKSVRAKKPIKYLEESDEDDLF

[13] = target: DNA topoisomerase 2-alpha (Homo sapiens) (UniProt P11388); assay: Inhibition of human topoisomerase-2alpha mediated decatenation at 25 uM using kinetoplast DNA as substrate after 30 mins in presence of ATP by ethidium bromide staining-based UV imaging analysis
[14] = tested on: L02; assay: Genotoxicity in human HL7702 cells assessed as induction of DNA damage at 50 uM after 24 hrs in combination of teniposide by alkaline comet assay; type: toxicity, cell-based; conditions: l02, 24 h
[15] = Therapeutic index, ratio of LD50 for acute toxicity in ip dosed C57BL6 mouse assessed as mouse survival administered as single dose for 3 days and monitored for 20 days by Bliss method to ED50 for antitumor activity against human HepG2 xenografted in ip dosed BALB/c nude mouse administered for 20 days and measured after 20 days by electronic caliper method; type: organism-based; conditions: in vivo, read-out: TI
[16] = tested on: HepG2; assay: Antitumor activity against human HepG2 xenografted in BALB/c nude mouse assessed as tumor growth inhibition at 30 mg/kg, ip administered for 20 days and measured after 20 days by electronic caliper method relative to control; type: functional; conditions: 480 h, read-out: TGI
[17] = tested on: L02; assay: Cell cycle arrest in human HL7702 cells assessed as accumulation at G2/M phase at 5 uM after 30 hrs by propidium staining based flow cytometry analysis relative to control; conditions: l02, 30 h
[18] = tested on: L02; assay: Induction of DNA damage in human HL7702 cells assessed as effect on gamma-H2AX phosphorylation at 20 uM after 24 hrs by Alexa Fluor 488 staining based fluorescence assay; type: cell-based; conditions: l02, 24 h
[19] = Acute toxicity in C57BL6 mouse assessed as effect on body weight at 100 mg/kg, ip administered for 20 days; type: organism-based; conditions: in vivo, 480 h
[20] = tested on: HepG2; assay: Cell cycle arrest in human HepG2 cells assessed as accumulation at G2/M phase at 15 uM after 36 hrs by propidium staining based flow cytometry analysis relative to control; type: functional
[21] = target: DNA topoisomerase 2-alpha (Homo sapiens) (UniProt P11388); assay: Inhibition of human topoisomerase-2alpha mediated decatenation using kinetoplast DNA as substrate after 30 mins in presence of ATP by ethidium bromide staining-based UV imaging analysis
[22] = tested on: HepG2; assay: Induction of apoptosis in human HepG2 cells assessed as apoptotic cells at 5 to 15 uM measured after 36 hrs by Annexin-V/propidium iodide staining based flow cytometry analysis relative to control; type: functional
[23] = tested on: HMEC; assay: Cytotoxicity against human HMEC cells assessed as inhibition of cell proliferation measured after 48 hrs by MTT assay relative to teniposide; type: cell-based
[24] = tested on: HepG2; assay: Antitumor activity against human HepG2 xenografted in ip dosed BALB/c nude mouse administered for 20 days and measured after 20 days by electronic caliper method; type: functional; conditions: 480 h
[25] = tested on: HepG2; assay: Induction of DNA damage in human HepG2 cells assessed as increase in H2AX phosphorylation at 20 uM after 24 hrs by Alexa Fluor 488 staining based fluorescence assay; type: functional, cell-based
[26] = tested on: L02; assay: Induction of apoptosis in human HL7702 cells assessed as increase in PARP cleavage at 25 uM after 30 hrs by Western blot analysis; type: cell-based; conditions: l02, 30 h
[27] = tested on: L02; assay: Induction of apoptosis in human HL7702 cells assessed as increase in BAX level at 25 uM after 30 hrs by Western blot analysis; type: cell-based; conditions: l02, 30 h
[28] = target: T1, DNA topoisomerase II; assay: Poison activity at topoisomerase-2 in human HL7702 cell lysate assessed as reduction in topoisomerase-2 band depletion at 50 uM after 3 hrs by Western blot analysis; type: ADME, subcellular
[29] = tested on: L02; assay: Genotoxicity in human HL7702 cells assessed as induction of DNA damage by measuring tail DNA at 50 uM after 24 hrs by alkaline comet assay (reference value: 3 +/- 1.1 %); type: toxicity, cell-based; conditions: l02, 24 h
[30] = tested on: HepG2; assay: Antitumor activity against human HepG2 xenografted in BALB/c nude mouse assessed as tumor volume at 30 mg/kg, ip administered for 20 days and measured after 20 days by electronic caliper method (reference value: 960.20 +/- 32.10 mm3); type: functional
[31] = tested on: L02; assay: Cytotoxicity against human HL7702 cells assessed as inhibition of cell proliferation measured after 48 hrs by MTT assay relative to teniposide; type: cell-based; conditions: l02, 48 h
[32] = tested on: MRC5; assay: Cytotoxicity against human MRC5 cells assessed as inhibition of cell proliferation measured after 48 hrs by MTT assay relative to teniposide; type: cell-based; conditions: mrc5, 48 h
[33] = species: Homo sapiens; assay: Induction of PI3K/AKT phosphorylation in human HL7702 cells at 25 uM after 30 hrs by Western blot analysis; type: cell-based
[34] = tested on: HepG2; assay: Induction of apoptosis in human HepG2 cells assessed as apoptotic cells at 10 uM measured after 42 hrs by Annexin-V/propidium iodide staining based flow cytometry analysis relative to control; type: functional
[35] = Acute toxicity in ip dosed C57BL6 mouse assessed as mouse survival administered as single dose for 3 days and monitored for 20 days by Bliss method; type: organism-based; conditions: in vivo

SMILES: COc1cc([C@@H]2c3cc4c(cc3[C@@H](O[C@@H]3O[C@@H]5CO[C@@H](c6cccs6)O[C@H]5[C@H](O)[C@H]3NC(=O)CSc3nc5cc(F)ccc5o3)[C@H]3COC(=O)[C@H]23)OCO4)cc(OC)c1O
- IC50 [1]: 147 µM
- IC50 [2]: 122 µM
- IC50 [3]: 144 µM
- IC50 [4]: 121 µM
- IC50 [5]: 156 µM
- IC50 [6]: 158 µM
- IC50 [7]: 133 µM
- IC50 [8]: 157 µM

SMILES: COc1cc([C@@H]2c3cc4c(cc3[C@@H](O[C@@H]3O[C@@H]5CO[C@@H](c6cccs6)O[C@H]5[C@H](OC(=O)CSc5nc6cc(F)ccc6o5)[C@H]3OC(=O)CSc3nc5cc(F)ccc5o3)[C@H]3COC(=O)[C@H]23)OCO4)cc(OC)c1O
- IC50 [1]: 20.4 µM
- IC50 [2]: 11.5 µM
- IC50 [3]: 20.4 µM
- IC50 [4]: 15.6 µM
- IC50 [5]: 23.4 µM
- IC50 [6]: 50.3 µM
- IC50 [7]: 25.4 µM
- IC50 [8]: 30.5 µM

SMILES: COc1cc([C@@H]2c3cc4c(cc3[C@@H](O[C@@H]3O[C@@H]5CO[C@@H](c6cccs6)O[C@H]5[C@H](OC(=O)CSc5nc6cc(F)ccc6s5)[C@H]3OC(=O)CSc3nc5cc(F)ccc5s3)[C@H]3COC(=O)[C@H]23)OCO4)cc(OC)c1O
- IC50 [1]: 20.3 µM
- IC50 [2]: 118 µM
- IC50 [3]: 22.1 µM
- IC50 [4]: 38.4 µM
- IC50 [5]: 24.6 µM
- IC50 [6]: 172 µM
- IC50 [7]: 25.6 µM
- IC50 [8]: 151 µM

SMILES: COc1cc([C@@H]2c3cc4c(cc3[C@@H](O[C@@H]3O[C@@H]5CO[C@@H](c6cccs6)O[C@H]5[C@H](OC(=O)CSc5nc6cc(F)ccc6o5)[C@H]3NC(=O)CSc3nc5cc(F)ccc5o3)[C@H]3COC(=O)[C@H]23)OCO4)cc(OC)c1O
- IC50 [9]: 124.2 µM
- Activity [10]: inactive
- Activity [11]: 30%
- IC50 [1]: 123 µM
- inhibition [12]: 100%
- inhibition [13]: Active
- IC50 [2]: 14.9 µM
- Activity [14]: Toxic
- selectivity ratio at 20 days [15]: 4.82
- inhibition in vivo at 30 mg/kg [16]: 62%
- Activity [17]: 40%
- Activity [18]: Toxic
- Activity [19]: Non-Toxic
- Activity [20]: 76%
- inhibition [21]: Dose-dependent effect
- Activity [22]: 30 - 55%
- fold change (FC) [23]: 10
- IC50 [3]: 123 µM
- ED50 [24]: 34.7 mg/kg
- Activity [25]: Active
- Activity [26]: Non-Toxic
- IC50 [4]: 11.1 µM
- Activity [27]: Non-Toxic
- IC50 [5]: 125 µM
- Activity [28]: Not Active
- IC50 [6]: 155 µM
- Activity [29]: 8.4%
- Activity [30]: 163.25 mm3
- IC50 [7]: 124 µM
- fold change (FC) [31]: 10
- fold change (FC) [32]: 10
- Activity [33]: Active
- IC50 [8]: 12.3 µM
- Activity [34]: 55%
- LD50 at 480 h [35]: 168 mg/kg

SMILES: COc1cc([C@@H]2c3cc4c(cc3[C@@H](O[C@@H]3O[C@@H]5CO[C@@H](c6cccs6)O[C@H]5[C@H](OC(=O)CSc5nc6cc(F)ccc6o5)[C@H]3O)[C@H]3COC(=O)[C@H]23)OCO4)cc(OC)c1O
- IC50 [1]: 15.9 µM
- IC50 [2]: 4.8 µM
- IC50 [3]: 16.1 µM
- IC50 [4]: 2.1 µM
- IC50 [5]: 14.2 µM
- IC50 [6]: 2 µM
- IC50 [7]: 14.9 µM
- IC50 [8]: 4.6 µM
